Experiments:
Assay type in all cases: cell-based
[1] = tested on: CAKI-1 cells; test: SRB assay, renal cell carcinoma cell line CAKI-1
Procedure: (§1) As a comparison, omeprazole (KN510) and trimetazidine (KN713), a 3-ketoacyl CoA thiolase inhibitor, were co-treated. […] After cell inoculation, 96-well cell culture plates were incubated for 24 hours before the addition of experimental drugs. […] The cells were then incubated in a CO2 incubator for 48 hours, after which the assay was terminated by the addition of cold TCA. Cells were fixed in situ by gently adding 50 μl of cold 50% (w/v) TCA (final concentration: 10% TCA) and incubated at 4° C. for 60 min. The supernatant was discarded, and the plate was washed five times with distilled water and air dried. Sulforhodamine B (SRB) solution (100 μl) of 0.4% (w/v) in 1% acetic acid was added to each well, and the plate was left at room temperature for 10 min. After staining, unbound dye was removed by washing five times with 1% acetic acid, and the plate was air-dried. The bound dye was then solubilized with 10 mM trizma base, and the absorbance was recorded at 515 nm using an automated plate reader. […] The predicted synergistic activity of a combination of the present invention can be calculated using the Colby Equation in Equation 1 (S.R. Colby, Weeds, 1967, pp. 15, 20-22): In the present invention, the actual measure of anti-cancer activity of the combination treatment was the inhibition rate of cancer cell growth (%), and the predicted value (E) of the combination treatment was measured by substituting it into the above Colby Equation.

[2] = tested on: DLD-1 cells; test: SRB assay, colon cancer cell line DLD-1
Procedure: as §1

[3] = tested on: SF295 cells; test: SRB assay, glioblastoma cell line SF295
Procedure: as §1

[4] = tested on: A549 cells; test: SRB assay, lung cancer cells A549
Procedure: as §1

[5] = tested on: MCF-7 cells; test: SRB assay, breast cancer cell line MCF-7
Procedure: To determine the effect of the combination treatment of omeprazole (KN510), a carnitine acylcarnitine carrier inhibitor, and thioridazine (KN714), a peroxisome beta-oxidation inhibitor, on cancer cell growth, the extent of cancer cell death was determined using the SRB assay (Sulforhodamine B colorimetric assay), and the degree of cancer cell growth was analyzed relative to the control (100%). As a comparison, omeprazole (KN510) and trimetazidine (KN713), a 3-ketoacyl CoA thiolase inhibitor, were co-treated.
First, a pancreatic cancer cell line, MIA PaCa-2, was prepared, and cells (100 μl) were inoculated into 96-well cell culture plates at plating densities ranging from 5,000 to 20,000 cells/well, depending on the doubling time of each cell line. After cell inoculation, 96-well cell culture plates were incubated for 24 hours before the addition of experimental drugs. MIA PaCa2 cells were treated with omeprazole (KN510) at concentrations of 10^−8 M, 10^−7 M, 10^−6 M, 10^−5 M, 10^−4 M, and 10^−3 M, thioridazine (KN714) at concentrations of 10^−10 M, 10^−9 M, 10^−8M, 10^−7 M, 10^−6 M, and 10^−5 M, and trimetazidine (KN713) at concentrations of 10^−7 M, 10^−6 M, 10^−5 M, 10^−4 M, 10^−3 M, and 10^−2 M, respectively.
The cells were then incubated in a CO2 incubator for 48 hours, after which the assay was terminated by the addition of cold TCA. Cells were fixed in situ by gently adding 50 μl of cold 50% (w/v) TCA (final concentration: 10% TCA) and incubated at 4° C. for 60 min. The supernatant was discarded, and the plate was washed five times with distilled water and air dried. Sulforhodamine B (SRB) solution (100 μl) of 0.4% (w/v) in 1% acetic acid was added to each well, and the plate was left at room temperature for 10 min. After staining, unbound dye was removed by washing five times with 1% acetic acid, and the plate was air-dried. The bound dye was then solubilized with 10 mM trizma base, and the absorbance was recorded at 515 nm using an automated plate reader.
Based on Table 1 above and GI50 values, omeprazole (KN510) and/or thioridazine (KN714) concentrations were added to each well such that the concentrations were as shown in the following groups, and then cancer cell death was measured in the same manner as in Examples 1-1 above. • 1) Control, • 2) Thioridazine (KN714) 5 μM alone treatment group, • 3) Thioridazine (KN714) 10 μM alone treatment group, • 4) Omeprazole (KN510) 200 μM alone treatment group, • 5) Omeprazole (KN510) 200 μM+thioridazine (KN714) 5 μM combination treatment group, • 6) Omeprazole (KN510) 200 μM+thioridazine (KN714) 10 μM combination treatment group.
When the anticancer activity of two compounds in combination is greater than the simple sum of the anticancer activity of the individual compounds (expected activity), this is called synergistic. The predicted synergistic activity of a combination of the present invention can be calculated using the Colby Equation in Equation 1 (S.R. Colby, Weeds, 1967, pp. 15, 20-22): […]
In the present invention, the actual measure of anti-cancer activity of the combination treatment was the inhibition rate of cancer cell growth (%), and the predicted value (E) of the combination treatment was measured by substituting it into the above Colby Equation. If the actual value is greater than the predicted value, it can be judged that there is a synergistic effect, and in this invention, the predicted value calculated by the Colby Equation and the actual value were compared to further verify the synergistic effect of the combination.
Experiments were performed using the breast cancer cell lines MCF-7 cells (1.2×10^4 cells/well) and MDA-MB-231 cells (8.0×10^3 cells/well) in the same manner as in Examples 1-2 and 1-3 above.

[6] = Homo sapiens, KN714 5 μM, read-out: Inhibition rate of cancer cell growth (%) (Actual value)
[7] = Homo sapiens, KN714 10 μM, read-out: Inhibition rate of cancer cell growth (%) (Actual value)
[8] = Homo sapiens, KN510 100 μM, read-out: Inhibition rate of cancer cell growth (%) (Actual value)
[9] = Homo sapiens, KN510 200 μM, read-out: Inhibition rate of cancer cell growth (%) (Actual value)

CSc1ccc2c(c1)N(CCC1CCCCN1C)c1ccccc1S2 (stereo not shown) [KN714, 10-[2-(1-methyl-2-piperidyl)ethyl]-2-(methylthio)phenothiazine]
inhibition at 5 µM [1, 6]: 24% | inhibition at 10 µM [1, 7]: 49.4% | Cancer cell growth rate Average (%) ([1]; KN714 5 μM): 75.99% | Cancer cell growth rate Average (%) ([1]; KN714 10 μM): 50.59% | inhibition at 5 µM [2, 6]: 8.66% | inhibition at 10 µM [2, 7]: 13.1% | Cancer cell growth rate Average (%) ([2]; KN714 5 μM): 91.34% | Cancer cell growth rate Average (%) ([2]; KN714 10 μM): 86.87% | inhibition at 5 µM ([3]; Homo sapiens, SF-295, KN714 5 μM, read-out: Inhibition rate of cancer cell growth (%) (Actual value)): 16.5% | inhibition at 10 µM ([3]; Homo sapiens, SF-295, KN714 10 μM, read-out: Inhibition rate of cancer cell growth (%) (Actual value)): 75.5% | Cancer cell growth rate Average (%) ([3]; KN714 5 μM): 83.54% | Cancer cell growth rate Average (%) ([3]; KN714 10 μM): 24.47% | inhibition at 5 µM [4, 6]: 2.15% | inhibition at 10 µM [4, 7]: 35.4% | Cancer cell growth rate Average (%) ([4]; KN714 5 μM): 97.85% | Cancer cell growth rate Average (%) ([4]; KN714 10 μM): 64.57% | inhibition at 5 µM ([5]; Homo sapiens, MCF7, KN714 5 μM, read-out: Inhibition rate of cancer cell growth (%) (Actual value)): 1.49% | inhibition at 10 µM ([5]; Homo sapiens, MCF7, KN714 10 μM, read-out: Inhibition rate of cancer cell growth (%) (Actual value)): 60.3% | Cancer cell growth rate Average (%) ([5]; KN714 5 μM): 98.51% | Cancer cell growth rate Average (%) ([5]; KN714 10 μM): 39.69%

COc1ccc2[nH]c([S+]([O-])Cc3ncc(C)c(OC)c3C)nc2c1 (stereo not shown) [KN510, omeprazole]
inhibition at 100 µM [1, 8]: 32% | inhibition at 200 µM [1, 9]: 72.9% | Cancer cell growth rate Average (%) ([1]; KN510 100 μM): 67.99% | Cancer cell growth rate Average (%) ([1]; KN510 200 μM): 27.11% | inhibition at 100 µM [2, 8]: 26.1% | inhibition at 200 µM [2, 9]: 63.2% | Cancer cell growth rate Average (%) ([2]; KN510 100 μM): 73.90% | Cancer cell growth rate Average (%) ([2]; KN510 200 μM): 36.78% | inhibition at 100 µM ([3]; Homo sapiens, SF-295, KN510 100 μM, read-out: Inhibition rate of cancer cell growth (%) (Actual value)): 32% | inhibition at 200 µM ([3]; Homo sapiens, SF-295, KN510 200 μM, read-out: Inhibition rate of cancer cell growth (%) (Actual value)): 63.5% | Cancer cell growth rate Average (%) ([3]; KN510 100 μM): 67.98% | Cancer cell growth rate Average (%) ([3]; KN510 200 μM): 36.53% | inhibition at 100 µM [4, 8]: 44.6% | inhibition at 200 µM [4, 9]: 69.7% | Cancer cell growth rate Average (%) ([4]; KN510 100 μM): 55.44% | Cancer cell growth rate Average (%) ([4]; KN510 200 μM): 30.29% | inhibition at 100 µM ([5]; Homo sapiens, MCF7, KN510 100 μM, read-out: Inhibition rate of cancer cell growth (%) (Actual value)): 34.7% | inhibition at 200 µM ([5]; Homo sapiens, MCF7, KN510 200 μM, read-out: Inhibition rate of cancer cell growth (%) (Actual value)): 50% | Cancer cell growth rate Average (%) ([5]; KN510 100 μM): 65.30% | Cancer cell growth rate Average (%) ([5]; KN510 200 μM): 49.96%
